Results taken from ChEMBL document CHEMBL2203252, “Brominated aromatic furanones and related esters from the ascidian Synoicum sp” (J Nat Prod, 2012).
≈ marks a conversion by molar mass, not a printed value.

Tests used:
[1] = Inhibition of SortaseA
[2] = Inhibition of Na+/K+-ATPase by fluorometric method
Isocitrate lyase = Isocitrate lyase (Candida albicans, UniProt Q9P8Q7); assay: Inhibition of Candida albicans ATCC 10231 isocitrate lyase by spectrophotometric analysis
Staphylococcus aureus = assay: Antimicrobial activity against Staphylococcus aureus ATCC 6538p after 24 hrs; assay type: functional
[3] = Cytotoxicity against human A549 cells after 48 hrs by MTT assay; assay type: cell-based; settings: read-out: LC50
[4] = Cytotoxicity against human K562 cells after 48 hrs by MTT assay; assay type: cell-based; settings: read-out: LC50
Kocuria rhizophila = assay: Antimicrobial activity against Kocuria rhizophila NBRC 12708 after 24 hrs; assay type: functional; settings: NBRC 12708, 24 h
Bacillus spizizenii = assay: Antimicrobial activity against Bacillus subtilis ATCC 6633 after 24 hrs; assay type: functional; settings: ATCC 6633, 24 h
Salmonella enterica = assay: Antimicrobial activity against Salmonella enterica ATCC 14028 after 24 hrs; assay type: functional; settings: ATCC 14028, 24 h
Proteus hauseri = assay: Antimicrobial activity against Proteus hauseri NBRC 3851 after 24 hrs; assay type: functional; settings: NBRC 3851, 24 h
Escherichia coli = assay: Antimicrobial activity against Escherichia coli ATCC 35270 after 24 hrs; assay type: functional; settings: ATCC 35270, 24 h

Isocitrate lyase, sequence (Q9P8Q7 whole entry): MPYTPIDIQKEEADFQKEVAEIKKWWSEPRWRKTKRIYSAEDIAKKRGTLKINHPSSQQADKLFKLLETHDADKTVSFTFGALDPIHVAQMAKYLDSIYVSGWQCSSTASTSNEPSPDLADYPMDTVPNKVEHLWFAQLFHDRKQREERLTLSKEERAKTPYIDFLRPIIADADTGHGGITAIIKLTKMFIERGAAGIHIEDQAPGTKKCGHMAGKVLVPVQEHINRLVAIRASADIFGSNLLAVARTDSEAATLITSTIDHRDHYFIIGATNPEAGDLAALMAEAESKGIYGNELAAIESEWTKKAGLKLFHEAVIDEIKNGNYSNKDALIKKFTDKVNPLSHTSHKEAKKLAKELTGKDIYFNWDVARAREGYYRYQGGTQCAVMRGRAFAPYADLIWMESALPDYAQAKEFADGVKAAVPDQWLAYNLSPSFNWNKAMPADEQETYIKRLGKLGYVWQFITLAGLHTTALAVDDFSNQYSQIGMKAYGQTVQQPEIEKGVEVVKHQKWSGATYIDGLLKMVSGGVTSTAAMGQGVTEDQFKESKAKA

| Compound | IC50 [1] [µM] | IC50 [2] [µM] | IC50 (Isocitrate lyase) [µM] | MIC (Staphylococcus aureus) [µg/mL] | CC50 at 48 h [3] [µM] | CC50 at 48 h [4] [µM] | MIC (Kocuria rhizophila) [µg/mL] | MIC (Bacillus spizizenii) [µg/mL] | MIC (Salmonella enterica) [µg/mL] | MIC (Proteus hauseri) [µg/mL] | MIC (Escherichia coli) [µg/mL] |
| --- | --- | --- | --- | --- | --- | --- | --- | --- | --- | --- | --- |
| Para-Hydroxymercuribenzoic acid | 106 |  |  |  |  |  |  |  |  |  |  |
| C[C@@H]1O[C@@H](O[C@H]2C[C@@H](O)[C@]3(CO)[C@H]4[C@H](O)C[C@]5(C)[C@@H](C6=CC(=O)OC6)CC[C@]5(O)[C@@H]4CC[C@]3(O)C2)[C@H](O)[C@H](O)[C@H]1O [OUABAIN] |  | 5.8 |  |  |  |  |  |  |  |  |  |
| O=C(O)CC[N+](=O)[O-] |  |  | 53.9 |  |  |  |  |  |  |  |  |
| COc1ccc(C=C2OC(=O)C([C@@H](O)c3cc(Br)c(OC)c(Br)c3)=C2c2cc(Br)c(O)c(Br)c2)cc1 | > 120 | 13.5 | > 100 | 6.3 (≈ 8.44 µM) | 38.5 | 50.8 | 3.1 (≈ 4.16 µM) | 1.6 (≈ 2.14 µM) | 3.1 (≈ 4.16 µM) | 3.1 (≈ 4.16 µM) | > 100 |
| O=C1O/C(=C\c2cc(Br)c(O)c(Br)c2)C(c2ccc(O)c(Br)c2)=C1C(=O)c1cc(Br)c(O)c(Br)c1 [CADIOLIDE E] | 78.8 | 2.5 | 8.9 | 3.1 (≈ 3.9 µM) | 40.4 | > 100 | 0.8 (≈ 1.01 µM) | 1.6 (≈ 2.01 µM) | 1.6 (≈ 2.01 µM) | 3.1 (≈ 3.9 µM) | > 100 |
| COC(=O)C1=C(c2cc(Br)c(O)c(Br)c2)C(=O)OC1=C(c1cc(Br)c(O)c(Br)c1)c1cc(Br)c(O)c(Br)c1 [CADIOLIDE I] | > 120 | 5 | 10.8 | 0.8 (≈ 0.885 µM) | 52.7 | 51.2 | 0.8 (≈ 0.885 µM) | 0.8 (≈ 0.885 µM) | 1.6 (≈ 1.77 µM) | 6.3 (≈ 6.97 µM) | > 100 |
| CC1(C)S[C@@H]2[C@H](NC(=O)[C@H](N)c3ccccc3)C(=O)N2[C@H]1C(=O)O [AMPICILLIN] |  |  |  | 0.4 (≈ 1.14 µM) |  |  | 0.4 (≈ 1.14 µM) | 0.4 (≈ 1.14 µM) | 0.4 (≈ 1.14 µM) | 1.6 (≈ 4.58 µM) | 6.3 (≈ 18 µM) |
| COC(=O)C(C(=O)c1cc(Br)c(O)c(Br)c1)=C(C(=O)OC)c1ccc(O)c(Br)c1 | > 120 | 145 | 47.6 | > 100 | > 100 | 49.7 | > 100 | > 100 | > 100 | > 100 | > 100 |
| COc1cccc2c1C(=O)c1c(O)c3c(c(O)c1C2=O)C[C@@](O)(C(=O)CO)C[C@@H]3O[C@H]1C[C@H](N)[C@H](O)[C@H](C)O1 [DOXORUBICIN] |  |  |  |  | 1.7 | 4.7 |  |  |  |  |  |
| COC(=O)C(C(=O)c1cc(Br)c(O)c(Br)c1)=C(C(=O)OC)c1cc(Br)c(O)c(Br)c1 | > 120 | 28 | 26.3 | 100 (≈ 149 µM) | 19.2 | 53.7 | 100 (≈ 149 µM) | 50 (≈ 74.4 µM) | 50 (≈ 74.4 µM) | 100 (≈ 149 µM) | > 100 |
| COc1c(Br)cc([C@H](O)C2=C(c3ccc(O)c(Br)c3)/C(=C/c3ccc(O)c(Br)c3)OC2=O)cc1Br [CADIOLIDE G] | > 120 | 10.3 | 49.8 | 3.1 (≈ 4.23 µM) | > 100 | > 100 | 3.1 (≈ 4.23 µM) | 12.5 (≈ 17.1 µM) | 0.8 (≈ 1.09 µM) | 3.1 (≈ 4.23 µM) | > 100 |
